Values quoted from earlier work, collected in patent publication US20140005605A1, “USE OF QUORUM SENSING INHIBITORS AND BIOFILM DISPERSING AGENTS FOR CONTROLLING BIOFILM-ASSOCIATED IMPLANTABLE MEDICAL DEVICE RELATED INFECTIONS” (priority 2012, published 2014).

Experiments:
[1] = test system: biofilms formed by Staphylococcus aureus
[2] = test system: biofilms formed by Pseudomonas aeruginosa
[3] = test system: Pseudomonas aeruginosa; conditions: mice treated with the QSI; promoted clearance by the murine immune system

In the case of O=[N+]([O-])c1cc[n+]([O-])cc1 [4-nitro-pyridine-N-oxide], the effectiveness against biofilms [1] is given as “effective” and the effectiveness against biofilms [2] is given as “effective”.
In the case of CCCCCCC/C=C\C(=O)O [cis-2-decanoic acid], the effectiveness against biofilms [1] is listed as “effective” and the effectiveness against biofilms [2] is listed as “effective”.
In the case of O=C1C=C(Br)/C(=C/Br)O1 [furanone C-30], the biofilm formation [3] is listed as “inhibited biofilm formation”.
